Laboratory results: patent US7109193B2, “Tricyclic diazepines tocolytic oxytocin receptor antagonists” (Wyeth, priority 2001, dated 2006)

Molecular target: T1, human vasopressin V1a receptor subtype (Homo sapiens, UniProt P37288)
T1 construct: host or cells: CHO cells (pZeoSV vector for the Thibonnier line)
Assay: Vasopressin binding in Chinese Hamster Ovary cell membranes expressing human vasopressin V1a subtype receptors
Settings: 100 nM, CHO cell membranes, [3H]Manning ligand, values without parentheses
Protocol: Vasopressin Binding in Chinese Hamster Ovary Cell Membranes Expressing Human Vasopressin V1a Subtype Receptors
The trypsin is removed by aspiration and the cells dislodged by tapping. Cell Culture medium (e.g. 30 mL for 1:30 split) is immediately added and mixed well to inactivate trypsin. 1 mL of detached cells is added to new culture flasks containing fresh cell culture medium (e.g., into 25 mL per T-150 flask), and mixed gently. The cells are incubated at 37° C. in 5% CO2. The medium is changed at 3 to 4 days interval (or as appropriate). […] All steps are done under sterile conditions. B. Membrane Preparation: The cells are washed twice gently with Hank's Balanced Salt solution (e.g,. use 10 mL per T-150 flask). […] The contents are transferred to centrifuge tubes (50 mL) kept in an ice bath. All subsequent steps are done at 4° C. The tubes are centrifuged at 300×g for 15 min (1380 rpm on SORVAL, Model RT6000D, using the rotor for 50 mL tubes). The supernatant is discarded and the cells suspended in homogenizing buffer(10 mM Tris-HCl containing 0.25 M sucrose and 1 mM EDTA, pH 7.4) ensuring that the volume of the buffer is about ten times the volume of the cell pellet. The cells are pooled into a centrifuge tube (50 mL) and homogenized with a Polytron at setting 6 for 10 sec. The homogenate is transferred into a Potter-Elvjehm homogenizer and homogenized with 3 strokes. The homogenate is centrifuged at 1500×g for 10 min at 4° C. (3100 rpm using SORVAL, model RT6000D, using the rotor for 50 mL tubes). The pellet is discarded. The supernatant is centrifuged at 100,000×g for 60 min. at 4° C. (Beckman L8-80M ultracentrifuge; spin at 37,500 rpm with rotor type 70 Ti for 50 mL tubes; 38,000 rpm with type 80Ti for 15 mL tubes; or 35,800 rpm with rotor type 45Ti). The supernantant is discarded and the pellet suspended in 3 to 4 mL of Tris buffer (50 mM TRIS-HCl, pH 7.4). The protein content is estimated by the Bradford or Lowry method. The volume of the membrane suspension is adjusted with the membrane buffer (50 mM Tris-HCl containing 0.1% BSA and 0.1 mM PMSF) to give 3.0 mg/mL (or as appropriate) of protein. The membranes are aliquoted and stored at −70° C. C. Radioligand Binding Assay: In wells of a 96-well format microtiter plate, is added 90, 110 or 130 μL (to make up a final volume of 200 μL) of assay buffer containing 50 mM of Tris-HCl (pH 7.4), BSA (heat inactivated, protease-free), […], 1 mg % aprotinin, 1 mg % leupeptin, 2 mg % 1,10-phenanthroline, 10 mg % trypsin inhibitor, and 0.1 mM PMSF. The inhibitors are added on the day of the experiment. The components are mixed at room temperature, and then kept in ice bath following adjustment of the pH to 7.4. […] 20 μL of 50% DMSO is added for Manning and other peptide ligands and the assay buffer volume is adjusted accordingly. To each well is added 50 μL of frozen membrane suspension thawed immediately prior to use and diluted in the assay buffer to the required concentration (equivalent to 25 to 50 μg of protein/well as needed). 20 μL of 8 nM [^3H]Manning ligand in the assay buffer, prepared just before use, is added, and incubated at room temperature for 60 min. shaking the plate on a mechanical shaker for the first 15 min. The incubation is stopped by rapid filtration of the plate contents followed by wash with ice-cold buffer (50 mM Tris-HCl, pH 7.4) using a cell harvester (Tomtek and Printed filtermat-B filter paper). The filter paper is thoroughly dried (7–12 min. in a microwave oven) and impregnated with MeltiLex B/H melt-on scintillation wax sheets and the radioactivity counted in a betaplate scintillation counter.
Binding data is either reported as percent inhibition at a certain concentration or if an IC50 was calculated, as a nanomolar concentration.

T1 sequence (P37288 whole entry): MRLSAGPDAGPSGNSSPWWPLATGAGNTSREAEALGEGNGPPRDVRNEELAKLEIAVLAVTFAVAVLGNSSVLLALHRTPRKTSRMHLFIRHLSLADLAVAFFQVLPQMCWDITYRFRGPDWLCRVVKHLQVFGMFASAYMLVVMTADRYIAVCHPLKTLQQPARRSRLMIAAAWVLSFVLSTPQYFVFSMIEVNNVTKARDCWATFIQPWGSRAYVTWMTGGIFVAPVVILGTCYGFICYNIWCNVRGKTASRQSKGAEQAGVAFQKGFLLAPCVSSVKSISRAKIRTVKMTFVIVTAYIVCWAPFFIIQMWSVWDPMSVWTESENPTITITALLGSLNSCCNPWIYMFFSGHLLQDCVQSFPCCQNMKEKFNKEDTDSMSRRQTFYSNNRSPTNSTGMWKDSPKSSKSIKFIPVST

Row | SMILES | V1a % inhibition @ 100 nM [%] | inhibition at 0.1 µM [%]
1 | COc1cccc(-c2ccc(C(=O)N3Cc4ccc(C(=O)N5CC[C@@H](N(C)C)C5)n4Cc4ccccc43)cc2OC)c1 [Example 283, {10-[(2,3′-Dimethoxy[1,1′-biphenyl]-4-yl)carbonyl]-10,11-dihydro-5H-pyrrolo[2,1-c][1,4]benzodiazepin-3-yl}[(3R)-3-(dimethylamino)pyrrolidinyl]methanone] | 40 | 
2 | COc1cc(C(=O)N2Cc3ccc(C(=O)N4CC[C@@H](N(C)C)C4)n3Cc3ccccc32)ccc1-c1ccccc1C [Example 281, [(3R)-3-(Dimethylamino)pyrrolidinyl]{10-[(2-methoxy-2′-methyl[1,1′-biphenyl]-4-yl)carbonyl]-10,11-dihydro-5H-pyrrolo[2,1-c][1,4]benzodiazepin-3-yl}methanone] | 58 | 
3 | COc1ccccc1-c1ccc(C(=O)N2Cc3ccc(C(=O)N4CCC(N5CCCCC5)CC4)n3Cc3ccccc32)cc1OC [Example 119, {10-[(2,2′-Dimethoxy-[1,1′-biphenyl]-4-yl)carbonyl]-10,11-dihydro-5H-pyrrolo[2,1-c][1,4]benzodiazepin-3-yl}[4-(1-piperidinyl)-1-piperidinyl]methanone] |  | 9
4 | COc1cc2c(cc1OC)N(C(=O)c1ccc(-c3ccccc3C(F)(F)F)c(C)c1)Cc1ccc(C(=O)N3CCC(=O)CC3)n1C2 [Example 14, 7,8-Dimethoxy-10-{[2-methyl-2′-(trifluoromethyl)-[1,1′-biphenyl]-4-yl]carbonyl}-[(10,11-dihydro-5H-pyrrolo[2,1-c][1,4]benzodiazepin-3-yl)carbonyl]-4-piperidinone] | −16 | 
5 | COc1cccc(-c2ccc(C(=O)N3Cc4ccc(C(=O)N5CCC(N6CCCCC6)CC5)n4Cc4ccccc43)cc2C)c1 [Example 114, {10-[(2-Methyl-3′-methoxy[1,1′-biphenyl]-4-yl)carbonyl]-10,11-dihydro-5H-pyrrolo[2,1-c][1,4]benzodiazepin-3-yl}[4-(1-piperidinyl)-1-piperidinyl]methanone] |  | 11
6 | Cc1ccccc1-c1ccc(C(=O)N2Cc3ccc(C(=O)NCCN4CCCCC4)n3Cc3ccccc32)cc1 [Example 153, 10-[(2′-Methyl[1,1′-biphenyl]-4-yl)carbonyl]-N-[2-(1-piperidinyl)ethyl]-10,11-dihydro-5H-pyrrolo[2,1-c][1,4]benzodiazepine-3-carboxamide] |  | 50
7 | COc1cccc(-c2cc(OC)c(C(=O)N3Cc4ccc(C(=O)N5CCC[C@H]5CN5CCCC5)n4Cc4ccccc43)cc2Cl)c1 [Example 268, {10-[(6-Chloro-3,3′-dimethoxy[1,1′-biphenyl]-4-yl)carbonyl]-10,11-dihydro-5H-pyrrolo[2,1-c][1,4]benzodiazepin-3-yl}[(2S)-2-(1-pyrrolidinylmethyl)pyrrolidinyl]methanone] | 6 | 
8 | COc1cccc(-c2ccc(C(=O)N3Cc4ccc(C(=O)N5CCC[C@H]5CN5CCCC5)n4Cc4ccccc43)cc2OC)c1 [Example 270, {10-[(2,3′-Dimethoxy[1,1′-biphenyl]-4-yl)carbonyl]-10,11-dihydro-5H-pyrrolo[2,1-c][1,4]benzodiazepin-3-yl}[(2S)-2-(1-pyrrolidinylmethyl)pyrrolidinyl]methanone] | 40 | 
9 | COc1cc(C(=O)N2Cc3ccc(C(=O)N4CC[C@@H](N(C)C)C4)n3Cc3ccccc32)ccc1-n1c(C)ccc1C [Example 322, [(3R)-3-(Dimethylamino)pyrrolidinyl]{10-[4-(2,5-dimethyl-1H-pyrrol-1-yl)-3-methoxybenzoyl]-10,11-dihydro-5H-pyrrolo[2,1-c][1,4]benzodiazepin-3-yl}methanone] | 12 | 
10 | COc1cccc(-c2ccc(C(=O)N3Cc4ccc(C(=O)NCCCn5ccnc5)n4Cc4ccccc43)cc2C)c1 [Example 125, N-[3-(1H-Imidazol-1-yl)propyl]-10-[(3′-methoxy-2-methyl[1,1′-biphenyl]-4-yl)carbonyl]-10,11-dihydro-5H-pyrrolo[2,1-c][1,4]benzodiazepine-3-carboxamide] |  | 10
